# From US4232150A, “Oligosaccharide precursors to substituted O-α-D and O-β-D-multigalactopyranosyl and glucopyranosyl 1→4 and 1→6 galactopyranosyl 1→6α-D-glucopyranoses” (American Cyanamid Company, priority 1979, dated 1980)
# Counter-ions that a name gives are not always drawn.
# Legend:
# Conditions in all cases: serial twofold dilution assay; higher well number indicates higher activity
# [1] = test system: late components of human complement (C3-C9); assay: Test Code 035 (C3-C9 inhibitor; C-Late), lysis of EAC 142; assay type: cell-based
# Text: (§1) An active inhibitor protects C2 from C1 and C4; (ii) Test Cod3 035 (3-C9 inhibitor)--This test determines the ability of the late components of human complement (C3-C9) to lyse EAC 142 in the presence of appropriate dilutions of the test compound. An active inhibitor protects EAC 142 from lysis by human C3-C9; (iii) Test Code 036 (C-Shunt inhibitor)--In this test human erythrocytes rendered fragile are lysed in autologous serum via the shunt pathway activated by cobra venom factor in the presence of appropriate dilutions of the test compound. Inhibition of the shunt pathway results in failure of lysis; (iv) Forssman Vasculitis Test--Here, the well known complement dependent lesion, Forssman vasculitis, is produced in guinea pigs by intradermal injection of rabbit anti-Forssman antiserum. The lesion is measured in terms of diameter, edema and hemorrhage and the extent to which a combined index of these is inhibited by prior intraperitoneal injection of the test compound at 200 mg/kg is then reported, unless otherwise stated; (v) Forssman Shock Test--Lethal shock is produced in guinea pigs by an i.v. injection of anti-Forssman antiserum and the harmonic mean death time of treated guinea pigs is compared with that of simultaneous controls; (vi) Complement Level Reduction Test--In this test, the above dosed guinea pigs, or others, are bled for serum and the complement level is determined in undiluted serum by the capillary tube method of U.S. Pat. No. 3,876,376 and compared to undosed control guinea pigs; (vii) Cap 50 Test--Here, appropriate amounts of the test compound are added to a pool of guinea pig serum in vitro, after which the undiluted serum capillary tube assay referred to above is run. The concentration of compound inhibiting 50% is reported;
# (§2) **Activity in wells, a serial dilution assay; higher well number indicate
# (§3) higher activity. The serial dilutions are twofold
# [2] = test system: shunt pathway activated by cobra venom factor; assay: Test Code 036 (C-Shunt inhibitor), lysis of human erythrocytes by cobra venom factor; assay type: cell-based
# Text: as §1, §2, §3
# activated human C1 = molecular target: T1, activated human C1 (Homo sapiens, UniProt P09871); assay: Test Code 026 (C1 inhibitor); assay type: biochemical
# T1 construct: functional test of fluid-phase human C2 destruction in presence of C4
# T1 sequence (P09871 16-688): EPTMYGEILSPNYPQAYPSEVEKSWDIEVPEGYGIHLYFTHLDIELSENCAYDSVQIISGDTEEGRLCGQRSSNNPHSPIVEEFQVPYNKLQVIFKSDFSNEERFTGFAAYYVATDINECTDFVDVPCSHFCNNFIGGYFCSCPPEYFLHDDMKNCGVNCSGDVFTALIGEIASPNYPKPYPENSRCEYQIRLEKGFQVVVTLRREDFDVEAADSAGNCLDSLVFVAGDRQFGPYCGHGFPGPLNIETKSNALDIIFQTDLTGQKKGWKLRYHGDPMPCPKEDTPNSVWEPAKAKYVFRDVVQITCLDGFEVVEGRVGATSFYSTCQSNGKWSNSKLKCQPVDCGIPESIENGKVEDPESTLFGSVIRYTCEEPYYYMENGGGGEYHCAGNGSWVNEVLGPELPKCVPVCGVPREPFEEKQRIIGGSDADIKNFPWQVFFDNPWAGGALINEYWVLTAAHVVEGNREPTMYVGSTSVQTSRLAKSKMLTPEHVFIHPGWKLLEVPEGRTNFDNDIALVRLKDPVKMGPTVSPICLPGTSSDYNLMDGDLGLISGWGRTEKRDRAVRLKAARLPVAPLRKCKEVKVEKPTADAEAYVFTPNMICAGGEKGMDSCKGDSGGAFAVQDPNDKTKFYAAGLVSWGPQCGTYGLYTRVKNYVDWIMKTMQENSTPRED
# T1 sequence (P00736 18-705 partner): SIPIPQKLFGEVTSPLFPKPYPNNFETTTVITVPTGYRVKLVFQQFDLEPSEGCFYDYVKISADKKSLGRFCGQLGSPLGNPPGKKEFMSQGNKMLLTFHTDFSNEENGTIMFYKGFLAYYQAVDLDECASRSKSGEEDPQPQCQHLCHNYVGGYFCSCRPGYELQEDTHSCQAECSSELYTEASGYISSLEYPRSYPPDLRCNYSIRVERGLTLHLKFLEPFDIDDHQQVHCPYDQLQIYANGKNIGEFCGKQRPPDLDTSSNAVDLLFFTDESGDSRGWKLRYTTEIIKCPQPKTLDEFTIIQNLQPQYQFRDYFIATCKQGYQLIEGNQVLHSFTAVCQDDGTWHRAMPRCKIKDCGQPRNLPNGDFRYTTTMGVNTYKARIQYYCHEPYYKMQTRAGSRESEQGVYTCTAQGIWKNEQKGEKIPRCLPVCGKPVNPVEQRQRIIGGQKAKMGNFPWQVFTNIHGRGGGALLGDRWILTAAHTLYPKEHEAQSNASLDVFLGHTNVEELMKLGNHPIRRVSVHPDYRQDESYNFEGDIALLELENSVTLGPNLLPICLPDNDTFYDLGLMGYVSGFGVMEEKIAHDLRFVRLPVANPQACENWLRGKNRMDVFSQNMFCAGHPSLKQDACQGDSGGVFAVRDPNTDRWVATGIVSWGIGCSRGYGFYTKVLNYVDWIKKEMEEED
# T1 sequence (P02745 23-245 partner): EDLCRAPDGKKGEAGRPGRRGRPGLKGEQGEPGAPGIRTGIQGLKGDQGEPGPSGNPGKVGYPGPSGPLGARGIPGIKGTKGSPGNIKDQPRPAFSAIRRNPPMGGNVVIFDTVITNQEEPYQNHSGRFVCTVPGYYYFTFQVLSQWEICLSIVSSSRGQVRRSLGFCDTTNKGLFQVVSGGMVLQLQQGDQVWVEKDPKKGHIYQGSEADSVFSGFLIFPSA
# T1 sequence (P02746 28-253 partner): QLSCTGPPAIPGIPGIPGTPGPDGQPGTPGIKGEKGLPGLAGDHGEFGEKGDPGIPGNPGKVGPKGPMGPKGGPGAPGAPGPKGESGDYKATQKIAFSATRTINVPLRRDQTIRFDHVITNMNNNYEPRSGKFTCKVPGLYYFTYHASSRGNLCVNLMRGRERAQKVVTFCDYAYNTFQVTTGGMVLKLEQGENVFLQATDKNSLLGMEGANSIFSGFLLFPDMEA
# T1 sequence (P02747 29-245 partner): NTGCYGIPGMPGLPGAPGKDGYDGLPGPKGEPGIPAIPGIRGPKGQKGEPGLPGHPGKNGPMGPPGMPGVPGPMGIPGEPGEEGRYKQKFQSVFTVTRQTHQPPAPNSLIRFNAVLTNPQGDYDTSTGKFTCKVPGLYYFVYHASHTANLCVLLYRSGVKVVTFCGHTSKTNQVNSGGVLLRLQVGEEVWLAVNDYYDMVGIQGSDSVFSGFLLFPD
# Text: as §1, §2, §3
Compound,C-Late 035* Wells [1],Shunt Inhibition 036* Wells [2],C1 026* Wells (activated human C1)
"O=S(=O)(O)OC[C@H]1O[C@H](OC[C@H]2O[C@@H](OC[C@H]3O[C@H](OC[C@H]4O[C@H](OS(=O)(=O)O)[C@H](OS(=O)(=O)O)[C@@H](OS(=O)(=O)O)[C@@H]4OS(=O)(=O)O)[C@H](OS(=O)(=O)O)[C@@H](OS(=O)(=O)O)[C@H]3OS(=O)(=O)O)[C@H](OS(=O)(=O)O)[C@@H](OS(=O)(=O)O)[C@@H]2OS(=O)(=O)O)[C@H](OS(=O)(=O)O)[C@@H](OS(=O)(=O)O)[C@H]1OS(=O)(=O)O [gal →1α,6 glc →1β,6 gal →1α,6 tetradecakis (H-sulfate), tetr] [Gal 1α,6 glc 1β,6 gal 1α,6 glc tetradecakis (H-sulfate), tetradecasalt with trimethylamine]",+1 Wells,+5 Wells,+9 Wells
"O=S(=O)(O)OC[C@H]1O[C@@H](OC[C@H]2O[C@H](OC[C@H]3O[C@H](OS(=O)(=O)O)[C@H](OS(=O)(=O)O)[C@@H](OS(=O)(=O)O)[C@@H]3OS(=O)(=O)O)[C@H](OS(=O)(=O)O)[C@@H](OS(=O)(=O)O)[C@H]2OS(=O)(=O)O)[C@H](OS(=O)(=O)O)[C@@H](OS(=O)(=O)O)[C@@H]1O[C@@H]1O[C@H](COS(=O)(=O)O)[C@@H](OS(=O)(=O)O)[C@H](OS(=O)(=O)O)[C@H]1OS(=O)(=O)O [glc →1β,4 glc →1β,6 gal →1α,6 glc tetradicakis (H-sulfate), ] [Glc 1β,4 glc 1β,6 gal 1α,6 glc tetradecakis (H-sulfate), tetradecasalt with trimethylamine]",–,+4 Wells,+9 Wells
"O=S(=O)(O)OC[C@H]1O[C@H](OC[C@H]2O[C@@H](OC[C@H]3O[C@H](OC[C@H]4O[C@H](OS(=O)(=O)O)[C@H](OS(=O)(=O)O)[C@@H](OS(=O)(=O)O)[C@@H]4OS(=O)(=O)O)[C@H](OS(=O)(=O)O)[C@@H](OS(=O)(=O)O)[C@H]3OS(=O)(=O)O)[C@H](OS(=O)(=O)O)[C@@H](OS(=O)(=O)O)[C@@H]2OS(=O)(=O)O)[C@H](OS(=O)(=O)O)[C@@H](OS(=O)(=O)O)[C@H]1OS(=O)(=O)O [gal →1α,6 glc → 1β,6 gal →1α,6 glc tetradecakis (H-sulfate),] [Gal 1α,6 glc 1β,6 gal 1α,6 glc tetradecakis (H-sulfate), tetradecasodium salt]",+1 Wells,+6 Wells,+9 Wells
"O=S(=O)(O)OC[C@H]1O[C@H](OC[C@H]2OC(OS(=O)(=O)O)[C@H](OS(=O)(=O)O)[C@@H](OS(=O)(=O)O)[C@@H]2OS(=O)(=O)O)[C@H](OS(=O)(=O)O)[C@@H](OS(=O)(=O)O)[C@H]1OS(=O)(=O)O (stereo partly drawn) [Gal 1α,6 glc octakis (H-sulfate), octasodium salt]",–,–,+8 Wells
"O=S(=O)(O)OC[C@H]1O[C@@H](OC[C@H]2O[C@H](OC[C@H]3O[C@H](OS(=O)(=O)O)[C@H](OS(=O)(=O)O)[C@@H](OS(=O)(=O)O)[C@@H]3OS(=O)(=O)O)[C@H](OS(=O)(=O)O)[C@@H](OS(=O)(=O)O)[C@H]2OS(=O)(=O)O)[C@H](OS(=O)(=O)O)[C@@H](OS(=O)(=O)O)[C@H]1OS(=O)(=O)O [gal →1β,6 gal →1α,6 glc undecakis -sulfate), undecasalt with] [Gal 1β,6 gal 1α,6 glc undecakis (H-sulfate), undecasalt with trimethylamine]",–,–,+9 Wells
"O=S(=O)(O)OC[C@H]1O[C@@H](OC[C@H]2O[C@H](OC[C@H]3OC(OS(=O)(=O)O)[C@H](OS(=O)(=O)O)[C@@H](OS(=O)(=O)O)[C@@H]3OS(=O)(=O)O)[C@H](OS(=O)(=O)O)[C@@H](OS(=O)(=O)O)[C@H]2OS(=O)(=O)O)[C@H](OS(=O)(=O)O)[C@@H](OS(=O)(=O)O)[C@@H]1O[C@H]1O[C@H](COS(=O)(=O)O)[C@@H](O[C@H]2O[C@H](COS(=O)(=O)O)[C@@H](O[C@H]3O[C@H](COS(=O)(=O)O)[C@@H](O[C@H]4O[C@H](COS(=O)(=O)O)[C@@H](O[C@H]5O[C@H](COS(=O)(=O)O)[C@@H](O[C@H]6O[C@H](COS(=O)(=O)O)[C@@H](OS(=O)(=O)O)[C@H](OS(=O)(=O)O)[C@H]6OS(=O)(=O)O)[C@H](OS(=O)(=O)O)[C@H]5OS(=O)(=O)O)[C@H](OS(=O)(=O)O)[C@H]4OS(=O)(=O)O)[C@H](OS(=O)(=O)O)[C@H]3OS(=O)(=O)O)[C@H](OS(=O)(=O)O)[C@H]2OS(=O)(=O)O)[C@H](OS(=O)(=O)O)[C@H]1OS(=O)(=O)O (stereo partly drawn) [(glc →1α,4)6 glc →1β,6 gal →1α,6 glc nonacosakis (H-sulfate)] [(Glc 1α,4)6 glc 1β,6 gal 1α,6 glc nonacosakis (H-sulfate) nonacosasalt with trimethylamine]",+1 Wells,+5 Wells,+10 Wells
"O=S(=O)(O)OC[C@H]1O[C@@H](OC[C@H]2O[C@H](OC[C@H]3O[C@H](OS(=O)(=O)O)[C@H](OS(=O)(=O)O)[C@@H](OS(=O)(=O)O)[C@@H]3OS(=O)(=O)O)[C@H](OS(=O)(=O)O)[C@@H](OS(=O)(=O)O)[C@H]2OS(=O)(=O)O)[C@H](OS(=O)(=O)O)[C@@H](OS(=O)(=O)O)[C@H]1OS(=O)(=O)O [gal →1β,6 gal →1α,6 glc undecakis -sulfate), undecasodium sa] [Gal 1β,6 gal 1α,6 glc undecakis (H-sulfate), undecasodium salt]",–,–,+9 Wells
"O=S(=O)(O)OC[C@H]1O[C@@H](OC[C@H]2O[C@H](OC[C@H]3O[C@H](OS(=O)(=O)O)[C@H](OS(=O)(=O)O)[C@@H](OS(=O)(=O)O)[C@@H]3OS(=O)(=O)O)[C@H](OS(=O)(=O)O)[C@@H](OS(=O)(=O)O)[C@H]2OS(=O)(=O)O)[C@H](OS(=O)(=O)O)[C@@H](OS(=O)(=O)O)[C@@H]1O[C@H]1O[C@H](COS(=O)(=O)O)[C@@H](O[C@H]2O[C@H](COS(=O)(=O)O)[C@@H](OS(=O)(=O)O)[C@H](OS(=O)(=O)O)[C@H]2OS(=O)(=O)O)[C@H](OS(=O)(=O)O)[C@H]1OS(=O)(=O)O [(glc →1α,4)2 glc →1β,6 gal →1α,6 heptadecakis (H-sulfate), h] [(Glc 1α,4)2 glc 1β,6 gal 1α,6 glc heptadecakis (H-sulfate) heptadecasodium salt]",+2 Wells,+6 Wells,+9 Wells
"O=S(=O)(O)OC[C@H]1O[C@@H](OC[C@H]2O[C@H](OC[C@H]3O[C@H](OS(=O)(=O)O)[C@H](OS(=O)(=O)O)[C@@H](OS(=O)(=O)O)[C@@H]3OS(=O)(=O)O)[C@H](OS(=O)(=O)O)[C@@H](OS(=O)(=O)O)[C@H]2OS(=O)(=O)O)[C@H](OS(=O)(=O)O)[C@@H](OS(=O)(=O)O)[C@@H]1O[C@@H]1O[C@H](COS(=O)(=O)O)[C@@H](OS(=O)(=O)O)[C@H](OS(=O)(=O)O)[C@H]1OS(=O)(=O)O [glc →1β,4 glc →1β,6 gal →1α,6 glc tetradecakis (H-sulfate), ] [Glc 1β,4 glc 1β,6 gal 1α,6 glc tetradecakis (H-sulfate), tetradecasodium salt]",–,–,+9 Wells
"O=S(=O)(O)OC[C@H]1O[C@@H](OC[C@H]2O[C@H](OC[C@H]3OC(OS(=O)(=O)O)[C@H](OS(=O)(=O)O)[C@@H](OS(=O)(=O)O)[C@@H]3OS(=O)(=O)O)[C@H](OS(=O)(=O)O)[C@@H](OS(=O)(=O)O)[C@H]2OS(=O)(=O)O)[C@H](OS(=O)(=O)O)[C@@H](OS(=O)(=O)O)[C@@H]1O[C@H]1O[C@H](COS(=O)(=O)O)[C@@H](OS(=O)(=O)O)[C@H](OS(=O)(=O)O)[C@H]1OS(=O)(=O)O (stereo partly drawn) [glc →1α,4 glc →1β,6 gal →1α,6 glc tetradecakis (H-sulfate), ] [Glc 1α,4 glc 1β,6 gal 1α,6 glc tetradecakis (H-sulfate), tetradecasalt with trimethylamine]",+1 Wells,–,–
"O=S(=O)(O)OC[C@H]1O[C@@H](OC[C@H]2O[C@H](OC[C@H]3O[C@H](OS(=O)(=O)O)[C@H](OS(=O)(=O)O)[C@@H](OS(=O)(=O)O)[C@@H]3OS(=O)(=O)O)[C@H](OS(=O)(=O)O)[C@@H](OS(=O)(=O)O)[C@H]2OS(=O)(=O)O)[C@H](OS(=O)(=O)O)[C@@H](OS(=O)(=O)O)[C@@H]1O[C@H]1O[C@H](COS(=O)(=O)O)[C@@H](O[C@H]2O[C@H](COS(=O)(=O)O)[C@@H](OS(=O)(=O)O)[C@H](OS(=O)(=O)O)[C@H]2OS(=O)(=O)O)[C@H](OS(=O)(=O)O)[C@H]1OS(=O)(=O)O [(glc →1α,4) 2 glc →1β,6 gal →1α,6 heptadecakis (H-sulfate), ] [(Glc 1α,4)2 glc 1β,6 gal 1α,6 glc heptadecakis (H-sulfate) heptadecasalt with trimethylamine]",+1 Wells,–,+9 Wells
